Laboratory results from US9937151B2, “Carbapenem antibacterials with gram-negative activity” (priority 2010, dated 2018).
Values after ≈ are worked out from the molar mass of the structure shown.

Tested on: G(−) bacterial strains
Assay: Dilution antimicrobial susceptibility tests (MIC, NCCLS agar dilution / broth dilution)
Assay type: cell-based, Gram-negative organisms
Conditions: unit assumed
Procedure: The MIC (minimum inhibitory concentration) was determined by the NCCLS (National Committee for Clinical Laboratory Standards) methods 2000. Methods for dilution antimicrobial susceptibility testing for bacteria that growth aerobically (M7-A5, vol. 20, No. 2). The agar dilution method for determining antimicrobial susceptibility was carried out using Mueller-Hinton agar. A final inoculum of 10^4 CFU/spot was applied with an inoculation device. Broth dilution tests were performed with 5×10^5 CFU/well in 96 well plates. The susceptibilities of streptococci were determined by Mueller-Hinton agar supplemented with 5% sheep blood. All assays were run with the indicated control strains, available from the ATCC (American Type Culture Collection, Rockville, Md.).
Abbreviations used in Table 1 are defined as follows: Cf-R: Ceftazidime Resistance, Ci-R: Ciprofloxacin Resistance, Gen-R: Gentamycin Resistance, Imp-R: Imipenem Resistance, Mp-R: Meropenem Resistance, Ofx-R: Ofloxacin Resistance, B+: β-lactamase Production, AmpC: AmpC-lactamase Hyper production, CBPase: Carbapenemase Production.

[1] = strain #1 Acinetobacter calcoaceticus
[2] = strain #2 Acinetobacter baumannii, Cf-R, Ci-R
[3] = strain #3 Acinetobacter baumannii, Cf-R, Ci-R, Mp-I
[4] = strain #4 Acinetobacter baumannii, Cf-R, Imp-I, CBPase
[5] = strain #7 Enterobacter aerogenes
[6] = strain #8 Enterobacter cloacae, Cf-R, B+
[7] = strain #9 Enterobacter cloacae, Cf-R
[8] = strain #10 Escherichia coli, Ci-R
[9] = strain #11 Escherichia coli, Ci-R, AmpC
[10] = strain #15 Klebsiella pneumoniae
[11] = strain #16 Moraxella catarrhalis
[12] = strain #21 Providencia rettgeri
[13] = strain #22 Salmonella typhimurium
[14] = strain #25 Shigella dysenteriae
[15] = strain #28 Stenotrophomonas maltophilia
[16] = strain #29 Pseudomonas aeruginosa
[17] = strain #30 Pseudomonas aeruginosa
[18] = strain #31 Pseudomonas aeruginosa, Ofx-R
[19] = strain #32 Pseudomonas aeruginosa, Cf-R
[20] = strain #33 Pseudomonas aeruginosa, Ci-R
[21] = strain #34 Pseudomonas aeruginosa, Gen-R
[22] = strain #35 Pseudomonas aeruginosa, Ip-R
[23] = strain #36 Pseudomonas aeruginosa, Cf-R, Ci-R, Mp-R

Compound `C[C@@H](O)C1C(=O)N2C(C(=O)O)=C(CN3CC(NS(N)(=O)=O)C3)[C@H](C)C12` (stereo partly shown) [Compound 58] has an MIC [1] of 0.5 µg/mL (≈ 1.34 µM), an MIC [2] of 2 µg/mL (≈ 5.34 µM) and an MIC [3] of 4 µg/mL (≈ 10.7 µM). For the same compound, the MIC [4] was 2 µg/mL (≈ 5.34 µM), the MIC (strain #5 Citrobacter diversus) was 0.13 µg/mL (≈ 0.347 µM) and the MIC (strain #6 Citrobacter freundii) was 0.25 µg/mL (≈ 0.668 µM). For the same compound, the MIC [5] was 0.5 µg/mL (≈ 1.34 µM), the MIC [6] was 0.13 µg/mL (≈ 0.347 µM) and the MIC [7] was 0.25 µg/mL (≈ 0.668 µM). For the same compound, the MIC [8] was 0.13 µg/mL (≈ 0.347 µM), the MIC [9] was 0.13 µg/mL (≈ 0.347 µM) and the MIC (strain #12 Escherichia coli) was 0.13 µg/mL (≈ 0.347 µM). It also gave an MIC (strain #13 Escherichia coli) of 0.25 µg/mL (≈ 0.668 µM), an MIC (strain #14 Klebsiella oxytoca) of 0.25 µg/mL (≈ 0.668 µM) and an MIC [10] of 0.25 µg/mL (≈ 0.668 µM). The MIC [11] was at most 0.008 µg/mL, the MIC (strain #17 Morganella Morganii) was 1 µg/mL (≈ 2.67 µM) and the MIC (strain #18 Morganella Morganii) was 1 µg/mL (≈ 2.67 µM). It also gave an MIC (strain #19 Proteus vulgaris) of 0.5 µg/mL (≈ 1.34 µM), an MIC (strain #20 Proteus mirabilis) of 0.25 µg/mL (≈ 0.668 µM) and an MIC [12] of 0.5 µg/mL (≈ 1.34 µM). It also gave an MIC [13] of 0.25 µg/mL (≈ 0.668 µM), an MIC (strain #23 Serratia marcescens) of 0.5 µg/mL (≈ 1.34 µM) and an MIC (strain #24 Serratia marcescens) of 0.5 µg/mL (≈ 1.34 µM). For the same compound, the MIC [14] was 0.25 µg/mL (≈ 0.668 µM), the MIC (strain #26 Shigella sonnei) was 0.25 µg/mL (≈ 0.668 µM) and the MIC (strain #27 Shigella flexneri) was 0.13 µg/mL (≈ 0.347 µM). It also gave an MIC [15] of 0.25 µg/mL (≈ 0.668 µM), an MIC [16] of 8 µg/mL (≈ 21.4 µM) and an MIC [17] of 8 µg/mL (≈ 21.4 µM). It also gave an MIC [18] of 4 µg/mL (≈ 10.7 µM), an MIC [19] of 8 µg/mL (≈ 21.4 µM) and an MIC [20] of 8 µg/mL (≈ 21.4 µM). For the same compound, the MIC [21] was 8 µg/mL (≈ 21.4 µM), the MIC [22] was 16 µg/mL (≈ 42.7 µM) and the MIC [23] was 32 µg/mL (≈ 85.5 µM).

`C[C@@H](O)C1C(=O)N2C(C(=O)O)=C(CN3CC[C@H](NS(N)(=O)=O)C3)[C@H](C)C12` (stereo partly shown) [Compound 72] gave an MIC [1] of 1 µg/mL (≈ 2.57 µM), an MIC [2] of 2 µg/mL (≈ 5.15 µM) and an MIC [3] of 4 µg/mL (≈ 10.3 µM). For the same compound, the MIC [4] was 4 µg/mL (≈ 10.3 µM), the MIC (strain #5 Citrobacter diversus) was 0.5 µg/mL (≈ 1.29 µM) and the MIC (strain #6 Citrobacter freundii) was 0.5 µg/mL (≈ 1.29 µM). The MIC [5] was 1 µg/mL (≈ 2.57 µM), the MIC [6] was 0.25 µg/mL (≈ 0.644 µM) and the MIC [7] was 1 µg/mL (≈ 2.57 µM). The MIC [8] was 0.25 µg/mL (≈ 0.644 µM), the MIC [9] was 0.25 µg/mL (≈ 0.644 µM) and the MIC (strain #12 Escherichia coli) was 0.25 µg/mL (≈ 0.644 µM). It also gave an MIC (strain #13 Escherichia coli) of 0.5 µg/mL (≈ 1.29 µM), an MIC (strain #14 Klebsiella oxytoca) of 1 µg/mL (≈ 2.57 µM) and an MIC [10] of 0.5 µg/mL (≈ 1.29 µM). The MIC [11] was 0.016 µg/mL (≈ 0.0412 µM), the MIC (strain #17 Morganella Morganii) was 4 µg/mL (≈ 10.3 µM) and the MIC (strain #18 Morganella Morganii) was 4 µg/mL (≈ 10.3 µM). The MIC (strain #19 Proteus vulgaris) was 2 µg/mL (≈ 5.15 µM), the MIC (strain #20 Proteus mirabilis) was 0.5 µg/mL (≈ 1.29 µM) and the MIC [12] was 2 µg/mL (≈ 5.15 µM). For the same compound, the MIC [13] was 0.5 µg/mL (≈ 1.29 µM), the MIC (strain #23 Serratia marcescens) was 1 µg/mL (≈ 2.57 µM) and the MIC (strain #24 Serratia marcescens) was 1 µg/mL (≈ 2.57 µM). The MIC [14] was 0.5 µg/mL (≈ 1.29 µM), the MIC (strain #26 Shigella sonnei) was 0.5 µg/mL (≈ 1.29 µM) and the MIC (strain #27 Shigella flexneri) was 0.25 µg/mL (≈ 0.644 µM). The MIC [15] was 0.5 µg/mL (≈ 1.29 µM), the MIC [16] was 8 µg/mL (≈ 20.6 µM) and the MIC [17] was 8 µg/mL (≈ 20.6 µM). The MIC [18] was 2 µg/mL (≈ 5.15 µM), the MIC [19] was 4 µg/mL (≈ 10.3 µM) and the MIC [20] was 8 µg/mL (≈ 20.6 µM). The MIC [21] was 8 µg/mL (≈ 20.6 µM), the MIC [22] was 8 µg/mL (≈ 20.6 µM) and the MIC [23] was 32 µg/mL (≈ 82.4 µM).

`C[C@@H](O)C1C(=O)N2C(C(=O)O)=C(CN3CC[C@H](O)C3)[C@H](C)C12` (stereo partly shown) [Compound 146] showed an MIC [1] of 1 µg/mL (≈ 3.22 µM), an MIC [2] of 1 µg/mL (≈ 3.22 µM) and an MIC [3] of 2 µg/mL (≈ 6.44 µM). It also gave an MIC [4] of 4 µg/mL (≈ 12.9 µM), an MIC (strain #5 Citrobacter diversus) of 0.5 µg/mL (≈ 1.61 µM) and an MIC (strain #6 Citrobacter freundii) of 0.5 µg/mL (≈ 1.61 µM). It also gave an MIC [5] of 2 µg/mL (≈ 6.44 µM), an MIC [6] of 0.25 µg/mL (≈ 0.806 µM) and an MIC [7] of 1 µg/mL (≈ 3.22 µM). For the same compound, the MIC [8] was 0.25 µg/mL (≈ 0.806 µM), the MIC [9] was 0.25 µg/mL (≈ 0.806 µM) and the MIC (strain #12 Escherichia coli) was 0.5 µg/mL (≈ 1.61 µM). It also gave an MIC (strain #13 Escherichia coli) of 0.5 µg/mL (≈ 1.61 µM), an MIC (strain #14 Klebsiella oxytoca) of 1 µg/mL (≈ 3.22 µM) and an MIC [10] of 1 µg/mL (≈ 3.22 µM). For the same compound, the MIC [11] was 0.016 µg/mL (≈ 0.0516 µM), the MIC (strain #17 Morganella Morganii) was 8 µg/mL (≈ 25.8 µM) and the MIC (strain #18 Morganella Morganii) was 8 µg/mL (≈ 25.8 µM). It also gave an MIC (strain #19 Proteus vulgaris) of 4 µg/mL (≈ 12.9 µM), an MIC (strain #20 Proteus mirabilis) of 0.5 µg/mL (≈ 1.61 µM) and an MIC [12] of 2 µg/mL (≈ 6.44 µM). It also gave an MIC [13] of 0.5 µg/mL (≈ 1.61 µM), an MIC (strain #23 Serratia marcescens) of 2 µg/mL (≈ 6.44 µM) and an MIC (strain #24 Serratia marcescens) of 2 µg/mL (≈ 6.44 µM). The MIC [14] was 0.5 µg/mL (≈ 1.61 µM), the MIC (strain #26 Shigella sonnei) was 0.5 µg/mL (≈ 1.61 µM) and the MIC (strain #27 Shigella flexneri) was 0.25 µg/mL (≈ 0.806 µM). The MIC [15] was 0.5 µg/mL (≈ 1.61 µM).

`C[C@@H](O)[C@H]1C(=O)N2C(C(=O)O)=C(CN3C[C@@H](O)[C@H](NC(=N)N)C3)[C@H](C)[C@H]12` [Compound 178] gave an MIC [1] of 0.13 µg/mL (≈ 0.354 µM), an MIC [2] of 1 µg/mL (≈ 2.72 µM) and an MIC [3] of 1 µg/mL (≈ 2.72 µM). The MIC [4] was 1 µg/mL (≈ 2.72 µM), the MIC (strain #5 Citrobacter diversus) was 0.25 µg/mL (≈ 0.68 µM) and the MIC (strain #6 Citrobacter freundii) was 0.5 µg/mL (≈ 1.36 µM). The MIC [5] was 1 µg/mL (≈ 2.72 µM), the MIC [6] was 0.25 µg/mL (≈ 0.68 µM) and the MIC [7] was 0.5 µg/mL (≈ 1.36 µM). It also gave an MIC [8] of 0.25 µg/mL (≈ 0.68 µM), an MIC [9] of 0.25 µg/mL (≈ 0.68 µM) and an MIC (strain #12 Escherichia coli) of 0.5 µg/mL (≈ 1.36 µM). It also gave an MIC (strain #13 Escherichia coli) of 0.5 µg/mL (≈ 1.36 µM), an MIC (strain #14 Klebsiella oxytoca) of 0.5 µg/mL (≈ 1.36 µM) and an MIC [10] of 0.5 µg/mL (≈ 1.36 µM). It also gave an MIC [11] of at most 0.008 µg/mL, an MIC (strain #17 Morganella Morganii) of 2 µg/mL (≈ 5.44 µM) and an MIC (strain #18 Morganella Morganii) of 2 µg/mL (≈ 5.44 µM). For the same compound, the MIC (strain #19 Proteus vulgaris) was 2 µg/mL (≈ 5.44 µM), the MIC (strain #20 Proteus mirabilis) was 0.5 µg/mL (≈ 1.36 µM) and the MIC [12] was 1 µg/mL (≈ 2.72 µM). The MIC [13] was 0.5 µg/mL (≈ 1.36 µM), the MIC (strain #23 Serratia marcescens) was 1 µg/mL (≈ 2.72 µM) and the MIC (strain #24 Serratia marcescens) was 2 µg/mL (≈ 5.44 µM). The MIC [14] was 0.5 µg/mL (≈ 1.36 µM), the MIC (strain #26 Shigella sonnei) was 0.5 µg/mL (≈ 1.36 µM) and the MIC (strain #27 Shigella flexneri) was 0.25 µg/mL (≈ 0.68 µM). The MIC [15] was 0.13 µg/mL (≈ 0.354 µM), the MIC [16] was 1 µg/mL (≈ 2.72 µM) and the MIC [17] was 2 µg/mL (≈ 5.44 µM). For the same compound, the MIC [18] was 1 µg/mL (≈ 2.72 µM), the MIC [19] was 2 µg/mL (≈ 5.44 µM) and the MIC [20] was 2 µg/mL (≈ 5.44 µM). The MIC [21] was 2 µg/mL (≈ 5.44 µM), the MIC [22] was 2 µg/mL (≈ 5.44 µM) and the MIC [23] was 16 µg/mL (≈ 43.5 µM).
